The experiment deals with T1, APJ Receptor (Homo sapiens, UniProt P35414).
T1 sequence (P35414 1-380): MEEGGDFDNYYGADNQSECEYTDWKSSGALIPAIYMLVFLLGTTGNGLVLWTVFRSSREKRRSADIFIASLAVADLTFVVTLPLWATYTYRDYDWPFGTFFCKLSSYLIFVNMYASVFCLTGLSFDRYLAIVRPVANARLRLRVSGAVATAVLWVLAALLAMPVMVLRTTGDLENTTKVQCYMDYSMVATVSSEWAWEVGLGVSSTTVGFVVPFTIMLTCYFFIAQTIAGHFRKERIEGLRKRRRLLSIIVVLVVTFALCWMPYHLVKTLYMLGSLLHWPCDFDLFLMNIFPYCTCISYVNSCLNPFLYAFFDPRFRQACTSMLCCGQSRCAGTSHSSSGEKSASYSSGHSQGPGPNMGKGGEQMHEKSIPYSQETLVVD
Kind of experiment: APJ cAMP assay (DiscoverX enzyme fragment complementation; inhibition of forskolin-stimulated cAMP). Format: cell-based. To be noted: CHO-K1 cell line stably expressing the APJ Receptor; EC80 forskolin; 30 minutes at 37° C.; read-out: Potency Range (APJ cAMP EC50). In outline:
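CHO-K1 cells stably expressing APJ incubated with compound plus EC80 forskolin for 30 min at 37° C. cAMP detected by β-galactosidase enzyme fragment complementation with chemiluminescent read-out; % activity calculated relative to vehicle and maximal controls.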
Take `CCOc1cccc(-c2nc3nc(Cl)c(NS(C)(=O)=O)nc3n2-c2c(OC)cncc2OC)n1` [Example 117, N-(5-Chloro-1-(3,5-dimethoxypyridin-4-yl)-2-(6-ethoxypyridin-2-yl)-1H-imidazo[4,5-b]pyrazin-6-yl)methanesulfonamide]: the EC50 was 1 to 100 nM.

On to `CCOc1cccc(-c2nc3nc(Cl)c(NS(=O)(=O)Cc4ccc(F)cn4)nc3n2-c2c(OC)cccc2OC)n1` [Example 96, N-(5-Chloro-1-(2,6-dimethoxyphenyl)-2-(6-ethoxypyridin-2-yl)-1H-imidazo[4,5-b]pyrazin-6-yl)-1-(5-fluoropyridin-2-yl)methanesulfonamide], for which the EC50 was below 1 nM.

As to `CCCOc1nc2ncc(NS(=O)(=O)c3ccccc3)nc2n1-c1c(OC)cccc1OC` [Example 134, N-(1-(2,6-Dimethoxyphenyl)-2-propoxy-1H-imidazo[4,5-b]pyrazin-6-yl) benzenesulfonamide], the EC50 was 100 to 10000 nM.

`CCOc1cccc(-c2nc3nc(COC(F)F)c(NS(C)(=O)=O)nc3n2-c2c(OC)cccc2OC)n1` [Example 141, N-(5-((Difluoromethoxy)methyl)-1-(2,6-dimethoxyphenyl)-2-(6-ethoxypyridin-2-yl)-1H-imidazo[4,5-b]pyrazin-6-yl)methanesulfonamide]: the EC50 lay in the range of 1 to 100 nM.

As for `CCOc1cccc(-c2nc3nc(Cl)c(NS(=O)(=O)CC4(O)CC4)nc3n2-c2c(OC)cccc2OC)n1` [Example 113, N-(5-Chloro-1-(2,6-dimethoxyphenyl)-2-(6-ethoxypyridin-2-yl)-1H-imidazo[4,5-b]pyrazin-6-yl)-1-(1-hydroxycyclopropyl)methanesulfonamide], the EC50 lay within 1 to 100 nM.

Regarding `CCOc1cccc(-c2nc3ncc(NS(=O)(=O)CC4CC4)nc3n2-c2c(OC)cccc2OC)n1` [Example 4, 1-cyclopropyl-N-(1-(2,6-dimethoxyphenyl)-2-(6-ethoxypyridin-2-yl)-1H-imidazo[4,5-b]pyrazin-6-yl)methanesulfonamide], the half-maximal effective concentration (EC50) lay within 1 to 100 nM.

Regarding `CCOc1cccc(-c2nc3ncc(NS(=O)(=O)C4CCOCC4)nc3n2-c2c(OC)cccc2OC)n1` [Example 36, N-(1-(2,6-dimethoxyphenyl)-2-(6-ethoxypyridin-2-yl)-1H-imidazo[4,5-b]pyrazin-6-yl)tetrahydro-2H-pyran-4-sulfonamide], the EC50 was in the range of 1 to 100 nM.

In the case of `CCOc1cccc(-c2nc3nc(Cl)c(NS(=O)(=O)C[C@H]4C[C@](C)(O)C4)nc3n2-c2c(OC)cccc2OC)n1` [Example 115, N-(5-Chloro-1-(2,6-dimethoxyphenyl)-2-(6-ethoxypyridin-2-yl)-1H-imidazo[4,5-b]pyrazin-6-yl)-1-((1r,3r)-3-hydroxymethylcyclobutyl) methanesulfonamide], the EC50 was below 1 nM.

In the case of `CCOc1cccc(-c2nc3nc(Cl)c(NS(=O)(=O)N4CCOCC4)nc3n2-c2c(OC)cccc2OC)n1` [Example 98, N-(5-Chloro-1-(2,6-dimethoxyphenyl)-2-(6-ethoxypyridin-2-yl)-1H-imidazo[4,5-b]pyrazin-6-yl)morpholine-4-sulfonamide], the EC50 lay in the range of 1 to 100 nM.

Turning to `CCOc1cccc(-c2nc3nc(Cl)c(NS(=O)(=O)Cc4ccccn4)nc3n2-c2c(OC)cccc2OC)n1` [Example 95, N-(5-Chloro-1-(2,6-dimethoxyphenyl)-2-(6-ethoxypyridin-2-yl)-1H-imidazo[4,5-b]pyrazin-6-yl)-1-(pyridin-2-yl)methanesulfonamide], the EC50 was in the range of 1 to 100 nM.

For `CCOc1cccc(-c2nc3nc(F)c(NS(C)(=O)=O)nc3n2-c2c(OC)cccc2OC)n1` [Example 146, N-(1-(2,6-Dimethoxyphenyl)-2-(6-ethoxypyridin-2-yl)-5-fluoro-1H-imidazo[4,5-b]pyrazin-6-yl)methanesulfonamide], the EC50 fell in the range of 1 to 100 nM.

Turning to `CCOc1cccc(-c2nc3nc(CCC4CC4)c(NS(C)(=O)=O)nc3n2-c2c(OC)cccc2OC)n1` [Example 66, N-(5-(2-cyclopropylethyl)-1-(2,6-dimethoxyphenyl)-2-(6-ethoxypyridin-2-yl)-1H-imidazo[4,5-b]pyrazin-6-yl)methanesulfonamide], the EC50 was below 1 nM.

Take `CCOc1cccc(-c2nc3nnc(NS(=O)(=O)N4CCOCC4)cc3n2-c2c(OC)cccc2OC)n1` [Example 121, N-(7-(2,6-Dimethoxyphenyl)-8-(6-ethoxypyridin-2-yl)-7H-imidazo[4,5-c]pyridazinyl)morpholine-4-sulfonamide]: the EC50 was 1 to 100 nM.

Usually EC50 stands for the concentration giving half of the maximal effect.

Values taken from patent US11944622B2 (Annapurna Bio, Inc., priority 2018, dated 2024).
